Results on four molecules are retold here after patent US9751854B2 (Millennium Pharmaceuticals, Inc., priority 2014, dated 2017).

In test [1] the target is human VPS34 (Homo sapiens (Human), UniProt Q8NEB9). Put plainly: Human VPS34 enzyme assay (Adapta TR-FRET ADP detection). The test is classed as biochemical. The settings on record: IC50 range class. A general note: TR-FRET usually uses a lanthanide donor and a delayed reading to cut background.
For test [2], the system named is A431 cell line. The test can be described thus: Cellular anti-proliferative assay of VPS34 inhibitors in combination with a second therapeutic agent (Cell Titer Glo, 72 hrs). Type of test: cell-based. The protocol:
(§1) Example 57: Cellular Assay for Anti-proliferative Activity of VPS34 Inhibitors in Combination with a Second Therapeutic Agent
(§2) Cells were plated in 25 μl of media in 384 well plates at 1,000 cells per well (A431, PC9, and […] cell lines), 1,500 cells per well (NCI-H1975) or 2,000 cells per well (NCI-H1650). The plates were incubated for 24 hrs at 37° C., 6% CO2. The test compounds (see Table 38 below) were diluted serially, and 62.5 nL of each compound solution (or DMSO, if it is a single agent experiment) is added so the total added to the cells is 125 nL. Cell plates were incubated for 72 hrs at 37° C., 6% CO2. Cell Titer Glo reagent (Promega) was added. The plates were then incubated for 10 minutes at room temperature before luminescence was read on a plate reader such as the Pherastar Plus, Pherastar FS, or LEADSeeker imaging system.
(§3) Bliss antagonism was defined similarly.
(§4) Bliss dependence was defined as the percent cell survival at a certain dose combination divided by the percent cell survival predicted by Bliss independence. More specifically, the Bliss dependence is vAB/(vA*vB), where vAB is the viability with drug A and drug B added, while vA and vB are the viabilities with each drug alone. The dose for the combination used in this study is the inflection point for each drug alone.
(§5) Another way to evaluate additivity is through consideration of Loewe additivity. A difference between Bliss independence and Loewe additivity evaluations of drug combination data is that Bliss independence evaluates whether two drugs interact at all (the null hypothesis is that the mechanisms are entirely independent) and Loewe additivity evaluates whether two drugs interact in an additive fashion (the null hypothesis is that the two drugs work by identical mechanisms). For Bliss independence, the boundary between additivity and synergy must be measured. For Loewe additivity, this boundary is assumed to be at a value of 1. Thus, Bliss independence provides a boundary between antagonism and synergy or additivity. Loewe additivity provides a boundary between synergy and independence or antagonism.
(§6) Synergy can also be measured by nonlinear blending synergy. Nonlinear blending synergy [Peterson, J. J. and Novik, S. J. J Recept Signal Transduct Res, 27, 12-146 (2007))] is found by considering the percent cell death values along the nonlinear blending plot. If the maximum cell death occurs between the endpoints, then the blending synergy is the difference between the maximum cell death for the combined drugs and the maximum cell death for the either drug alone.
(§7) A derivative of Loewe additivity is the Combination Index, I (see Chou T. C., Talalay P. Adv. Enzyme Reg., 22: 27-55 (1984) and Berenbaum M. C. J. Theor. Biol., 114:413-431 (1985)). This measure is based on the shape of the isobologram which represents 50% viability (for a review of the use of isobolograms in analysis of drug combinations, see Tallarida, R. J. J. Pharm. Exp. Therap. 319:1-7 (2006)).
(§8) The results in Table 38A were summarized by categorizing the Combination Index, I. A mean Combination Index in the range (0.7-1.3) is classified as Additivity. A mean in the range (0-0.7) is classified as Synergy. A mean in the range (1.3-2) is classified as Subadditivity. A mean greater than 2 is classified as Antagonism. […] In this case, the Nonlinear Blending Synergy is used instead to generate a call (Table 38B). The categorization is similar to the Combination Index. A Nonlinear Blending Synergy within the range (−20, 20) is classified as Additive. A value below −20 is classified as Antagonism, while a value above 20 is classified as Synergy.
In general terms: Cellular ATP, detected with luciferase, serves as a proxy for viable cell number.

Test [3] concerns NCI-H1650 cell line. Described as above. The test is classed as cell-based, human. The settings on record: NCI H-1650; for Blending Synergy: in combination with Erlotinib (Compound Y). Here is the method:
as §1, §2, §3, §4, §5, §6, §7, §8

Test [4] has as its system NCI-H1975 cell line. The description is as above. The test is classed as cell-based, human. The protocol:
as §1, §2, §3, §4, §5, §6, §7, §8

For test [5], the system named is PC9 cell line. The description is as above. The test is classed as cell-based, human. Here is the method: as §1, §2, §3, §4, §5, §6, §7, §8
Setting [6] is: in combination with Afatinib (Compound Y).
The mark [7] stands for this setting: in combination with Afatinib, call from Combination Index.
Setting [8] is: in combination with Erlotinib (Compound Y).
The mark [9] stands for this setting: in combination with Erlotinib, call from Combination Index.
[10] abbreviates: in combination with AZD9291 (Compound Y).
Where [11] appears, read: in combination with AZD9291, call from Combination Index.
The mark [12] stands for this setting: in combination with CO-1686 (Compound Y).
Where [13] appears, read: in combination with CO-1686, call from Combination Index.

One may read the IC50 as the concentration at which inhibition is half-maximal.

Sequence of human VPS34 (Q8NEB9 whole entry): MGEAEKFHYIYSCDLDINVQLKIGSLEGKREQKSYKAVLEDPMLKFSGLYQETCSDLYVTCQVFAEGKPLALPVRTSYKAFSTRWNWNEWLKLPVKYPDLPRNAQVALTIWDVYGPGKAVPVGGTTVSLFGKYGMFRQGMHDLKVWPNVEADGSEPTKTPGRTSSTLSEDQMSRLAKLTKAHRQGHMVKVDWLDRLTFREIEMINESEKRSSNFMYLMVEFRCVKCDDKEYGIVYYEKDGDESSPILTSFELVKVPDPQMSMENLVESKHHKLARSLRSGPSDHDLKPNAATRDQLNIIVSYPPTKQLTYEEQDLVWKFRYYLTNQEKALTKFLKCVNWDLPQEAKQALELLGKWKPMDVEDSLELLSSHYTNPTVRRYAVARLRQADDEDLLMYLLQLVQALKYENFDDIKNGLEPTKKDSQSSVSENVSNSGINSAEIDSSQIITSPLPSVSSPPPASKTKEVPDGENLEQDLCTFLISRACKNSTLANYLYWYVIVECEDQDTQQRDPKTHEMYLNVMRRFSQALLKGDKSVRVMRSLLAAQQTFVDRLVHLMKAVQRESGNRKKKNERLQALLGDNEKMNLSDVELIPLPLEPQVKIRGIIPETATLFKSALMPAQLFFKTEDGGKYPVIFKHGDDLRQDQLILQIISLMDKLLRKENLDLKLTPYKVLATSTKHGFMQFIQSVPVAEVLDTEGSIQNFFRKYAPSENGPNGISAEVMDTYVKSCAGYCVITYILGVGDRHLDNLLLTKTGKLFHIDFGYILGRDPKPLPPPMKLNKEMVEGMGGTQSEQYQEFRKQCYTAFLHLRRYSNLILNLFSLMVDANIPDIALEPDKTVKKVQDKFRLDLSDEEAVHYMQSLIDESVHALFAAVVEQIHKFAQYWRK

In test [1], `CC(=O)Nc1cc(-c2cnc(C)c(NS(=O)(=O)c3ccc(Cl)cc3F)c2)ccn1` [Compound I-94, N-(5-{[(4-chloro-2-fluorophenyl)sulfonyl]amino}-6-methyl-3,4′-bipyridin-2′-yl)acetamide] gave an IC50 of less than 10 nM. Further, the “Combination Index” value in test [2] (setting [6]) stood at 0.23; in test [2] (setting [8]), 0.38; in test [3] (setting [6]) it was 0.65; in test [4] (setting [6]), 0.54; in test [5] (setting [6]) it was 1.04; in test [5] (setting [8]) it was 0.91. Also, the Meaning entry is recorded as “Synergy (A mean in the range (0-0.7) is classified as Synergy)” in test [2] (setting [7]), “Synergy (A mean in the range (0-0.7) is classified as Synergy)” in test [2] (setting [9]), “Additivity (A mean Combination Index in the range (0.7-1.3) is classified as Additivity)” in test [5] (setting [7]) and “Additivity (A mean Combination Index in the range (0.7-1.3) is classified as Additivity)” in test [5] (setting [9]). Further, the “Blending Synergy” value in test [3] amounted to 23.69.

`Cc1ncc(-c2ccnc(Nc3ccncn3)c2)cc1NS(=O)(=O)N(C)C` [Compound I-217, N,N-dimethyl-N′-[6-methyl-2′-(pyrimidin-4-ylamino)-3,4′-bipyridin-5-yl]sulfuric diamide] displayed an IC50 in test [1] of less than 10 nM. Further, the “Combination Index” value is reported as 0.36 in test [2] (setting [6]); 0.46 in test [2] (setting [8]); 0.31 in test [3] (setting [6]); 0.52 in test [4] (setting [6]); 0.97 in test [5] (setting [6]); 0.87 in test [5] (setting [8]). The Meaning entry is on record as “Synergy (A mean in the range (0-0.7) is classified as Synergy)” in test [2] (setting [7]), “Synergy (A mean in the range (0-0.7) is classified as Synergy)” in test [2] (setting [9]), “Additivity (A mean Combination Index in the range (0.7-1.3) is classified as Additivity)” in test [5] (setting [7]) and “Additivity (A mean Combination Index in the range (0.7-1.3) is classified as Additivity)” in test [5] (setting [9]). Moreover, the “Blending Synergy” value in test [3] was 28.65.

Consider `CC(=O)Nc1cc(-c2cnc(Cl)c(NS(=O)(=O)c3ccc(F)cc3F)c2C)ccn1` [Compound I-153, N-(6-chloro-5-{[(2,4-diflourophenyl)sulfonyl]amino}-4-methyl-3,4′-bipyridin-2′-yl)acetamide], for which the IC50 in test [1] was less than 10 nM. Moreover, the “Combination Index” value is on record as 0.23 in test [2] (setting [6]), 0.64 in test [3] (setting [6]), 1.17 in test [5] (setting [6]) and 0.97 in test [5] (setting [8]). Moreover, the Meaning entry in test [2] (setting [7]) was “Synergy (A mean in the range (0-0.7) is classified as Synergy)”; in test [2] (in combination with Erlotinib, call from Nonlinear Blending Synergy), “Additivity”; in test [5] (setting [7]), “Additivity (A mean Combination Index in the range (0.7-1.3) is classified as Additivity)”; in test [5] (setting [9]), “Additivity (A mean Combination Index in the range (0.7-1.3) is classified as Additivity)”. The figures for the “Blending Synergy” value in test [2] (setting [8]), in test [3] and in test [4] (setting [6]) were 16.3, 23.76 and 8.72, respectively.

Regarding `Cc1nccc(Nc2cc(-c3cnc(C)c(C(=O)N4CCC4)c3)ccn2)n1` [Compound I-304, Azetidin-1-yl(6-methyl-2′-((2-methylpyrimidin-4-yl)amino)-3,4′-bipyridin-5-yl)methanone], the concentration for half-maximal inhibition (IC50) in test [1] lay in the range of 10 to 50 nM. The “Combination Index” value in test [2] (setting [10]) is given as 0.78; in test [2] (setting [12]) it was 0.99; in test [3] (setting [10]), 0.80; in test [3] (setting [12]), 0.47; in test [4] (setting [10]) it was 1.00; in test [4] (setting [12]), 0.77. Moreover, the “Combination Index” value in test [5] (setting [10]) stood at 0.98; in test [5] (setting [12]), 0.90. Moreover, the Meaning result in test [2] (setting [11]), in test [2] (setting [13]), in test [5] (setting [11]) and in test [5] (setting [13]) was “Additivity (A mean Combination Index in the range (0.7-1.3) is classified as Additivity)” in each case.
